From PubChem BioAssay (NCI)
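Exposure lasted 48 hours, with cells grown in 96-well plates and compounds tested at five concentrations. At the GI50, growth is halved. TGI: total growth inhibition.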

Assays:
Assay in all cases: growth of human tumour cells (NCI), 48 h
[1] = system: EKVX NSCLC
[2] = system: HOP-62 NSCLC
[3] = system: NCI-H23 lung
[4] = system: SF-268 CNS
[5] = system: OVCAR-8 ovarian
[6] = system: UACC-62 melanoma
[7] = system: SK-MEL-28 melanoma
[8] = system: BT-549 breast
[9] = system: SK-MEL-2 melanoma
[10] = system: SK-OV-3 ovarian
[11] = system: U251 CNS
[12] = system: T-47D breast
[13] = system: SN12C renal
[14] = system: K-562 leukemia
[15] = system: PC-3 prostate
[16] = system: UO-31 renal
[17] = system: OVCAR-4 ovarian
[18] = system: SW-620 colon
[19] = system: HCT-15 colon
[20] = system: SF-295 CNS
[21] = system: OVCAR-5 ovarian
[22] = system: RXF 393 renal
[23] = system: HS 578T breast
[24] = system: IGROV1 ovarian
[25] = system: KM12 colon
[26] = system: RPMI-8226 leukemia
[27] = system: CCRF-CEM leukemia
[28] = system: SNB-75 CNS
[29] = system: NCI-H522 lung
[30] = system: LOX IMVI melanoma
[31] = system: SF-539 CNS
[32] = system: ACHN renal
[33] = system: NCI-H226 lung
[34] = system: HCT-116 colon
[35] = system: SK-MEL-5 melanoma
[36] = system: CAKI-1 renal
[37] = system: MDA-MB-231 breast
[38] = system: UACC-257 melanoma
[39] = system: SNB-19 CNS
[40] = system: M14 melanoma
[41] = system: MCF7 breast
[42] = system: HCC-2998 colon
[43] = system: DU-145 prostate
[44] = system: A498 renal
[45] = system: A549 NSCLC
[46] = system: COLO 205 colon
[47] = system: MDA-MB-435
[48] = system: HOP-92 NSCLC
[49] = system: MDA-MB-468 breast
[50] = system: NCI-H460 lung
[51] = system: OVCAR-3 ovarian
[52] = system: 786-0 renal
[53] = system: HT29 colon
[54] = system: MALME-3M melanoma
[55] = system: TK-10 renal
[56] = system: SR leukemia
[57] = system: MOLT-4 leukemia
[58] = system: HL-60(TB) leukemia

## O=C(N/N=C/c1ccc(-c2ccc(O)cc2)s1)c1[nH]c2ccc(Br)cc2c1-c1ccccc1
[1]
  GI50: 4.04 µM
  TGI: 14.8 µM
[2]
  GI50: 6.32 µM
  TGI: 23.6 µM
[3]
  GI50: 3.25 µM
  TGI: 11.2 µM
[4]
  GI50: 5.16 µM
  TGI: 20.3 µM
[5]
  GI50: 4.22 µM
  TGI: 17 µM
[6]
  GI50: 2.65 µM
  TGI: 10 µM
[7]
  GI50: 3.22 µM
  TGI: 11.8 µM
[8]
  GI50: 2.95 µM
  TGI: 9.97 µM
[9]
  GI50: 3.45 µM
  TGI: 12.2 µM
[10]
  GI50: 12.2 µM
  TGI: 27.8 µM
[11]
  GI50: 3.63 µM
  TGI: 15.5 µM
[12]
  GI50: 4.6 µM
  TGI: 39.4 µM
[13]
  GI50: 3.48 µM
  TGI: 13 µM
[14]
  GI50: 2.95 µM
  TGI: > 100 µM
[15]
  GI50: 3.17 µM
  TGI: 13.9 µM
[16]
  GI50: 2.7 µM
  TGI: 13.5 µM
[17]
  GI50: 3.52 µM
  TGI: 14.1 µM
[18]
  GI50: 4.14 µM
  TGI: 15.2 µM
[19]
  GI50: 2.72 µM
  TGI: 10.6 µM
[20]
  GI50: 2.2 µM
  TGI: 5.28 µM
[21]
  GI50: 5.15 µM
  TGI: 17.2 µM
[22]
  GI50: 1.92 µM
  TGI: 4.56 µM
[23]
  GI50: 3.02 µM
  TGI: 14.1 µM
[24]
  GI50: 3.45 µM
  TGI: 12.9 µM
[25]
  GI50: 2.77 µM
  TGI: 9.53 µM
[26]
  GI50: 3.14 µM
  TGI: > 100 µM
[27]
  GI50: 2.46 µM
  TGI: > 100 µM
[28]
  GI50: 3.27 µM
  TGI: 12.4 µM
[29]
  GI50: 3.42 µM
  TGI: 14.3 µM
[30]
  GI50: 2 µM
  TGI: 5.51 µM
[31]
  GI50: 2.76 µM
  TGI: 8.43 µM
[32]
  GI50: 2.92 µM
  TGI: 10.9 µM
[33]
  GI50: 5.63 µM
  TGI: 20.9 µM
[34]
  GI50: 3.09 µM
  TGI: 11.7 µM
[35]
  GI50: 1.87 µM
  TGI: 4.16 µM
[36]
  GI50: 3.46 µM
  TGI: 13.8 µM
[37]
  GI50: 3.36 µM
  TGI: 11.5 µM
[38]
  GI50: 10.5 µM
  TGI: 28 µM
[39]
  GI50: 4.01 µM
  TGI: 14 µM
[40]
  GI50: 2.75 µM
  TGI: 10.5 µM
[41]
  GI50: 2.57 µM
  TGI: 10.9 µM
[42]
  GI50: 3.16 µM
  TGI: 10.6 µM
[43]
  GI50: 4.48 µM
  TGI: 15.7 µM
[44]
  GI50: 5.57 µM
  TGI: 18.9 µM
[45]
  GI50: 4.28 µM
  TGI: 17.7 µM
[46]
  GI50: 7.12 µM
  TGI: 23 µM
[47]
  GI50: 2.99 µM
  TGI: 10.1 µM
[48]
  GI50: 2.98 µM
  TGI: 9.12 µM
[49]
  GI50: 2.67 µM
  TGI: 7.57 µM
[50]
  GI50: 2.72 µM
  TGI: 7.99 µM
[51]
  GI50: 3.38 µM
  TGI: 13.6 µM
[52]
  GI50: 2.16 µM
  TGI: 9.19 µM
[53]
  GI50: 2.3 µM
  TGI: 5.36 µM
[54]
  GI50: 2.41 µM
  TGI: 9.77 µM
[55]
  GI50: 5.05 µM
  TGI: 19.3 µM

## O=C1C=CC(=CC=C2N(Cc3ccc4ccccc4c3)c3ccccc3N2Cc2ccc3ccccc3c2)C=C1
[1]
  GI50: 1.26 µM
  TGI: 3.94 µM
[2]
  GI50: 2.21 µM
[3]
  GI50: 1.25 µM
  TGI: 2.7 µM
[4]
  GI50: 2.78 µM
  TGI: 8.81 µM
[5]
  GI50: 0.971 µM
  TGI: 2.35 µM
[6]
  GI50: 1.4 µM
  TGI: 2.82 µM
[7]
  GI50: 1.29 µM
  TGI: 2.84 µM
[8]
  GI50: 1.26 µM
  TGI: 3.42 µM
[9]
  GI50: 1.58 µM
  TGI: 3.01 µM
[10]
  GI50: 1.72 µM
  TGI: 5.26 µM
[11]
  GI50: 0.52 µM
  TGI: 1.78 µM
[12]
  GI50: 1.33 µM
  TGI: 4.75 µM
[13]
  GI50: 1.51 µM
  TGI: 4.68 µM
[14]
  GI50: 0.514 µM
[15]
  GI50: 0.956 µM
  TGI: 3.1 µM
[16]
  GI50: > 20.7 µM
  TGI: > 100 µM
[18]
  GI50: 1.26 µM
  TGI: 2.66 µM
[19]
  GI50: 3.74 µM
  TGI: > 100 µM
[20]
  GI50: 1.29 µM
  TGI: 2.87 µM
[21]
  GI50: 1.72 µM
  TGI: 4.41 µM
[22]
  GI50: 1.33 µM
  TGI: 2.87 µM
[23]
  GI50: 1.47 µM
  TGI: 4.08 µM
[24]
  GI50: 1.23 µM
  TGI: 2.57 µM
[56]
  GI50: 0.902 µM
  TGI: 3.62 µM
[25]
  GI50: 1.52 µM
  TGI: 3.75 µM
[26]
  GI50: 0.428 µM
  TGI: 2.18 µM
[27]
  GI50: 1.46 µM
  TGI: 6.22 µM
[28]
  GI50: 1.18 µM
  TGI: 3.18 µM
[29]
  GI50: 1.48 µM
  TGI: 3.03 µM
[30]
  GI50: 0.887 µM
  TGI: 2.23 µM
[31]
  GI50: 1.73 µM
  TGI: 4.07 µM
[32]
  GI50: 3.59 µM
  TGI: > 100 µM
[33]
  GI50: 1.39 µM
  TGI: 2.98 µM
[34]
  GI50: 0.971 µM
  TGI: 3.16 µM
[35]
  GI50: 0.697 µM
  TGI: 1.69 µM
[57]
  GI50: 1.48 µM
  TGI: 4.32 µM
[37]
  GI50: 1.4 µM
  TGI: 2.76 µM
[38]
  GI50: 1.68 µM
  TGI: 3.61 µM
[39]
  GI50: 0.92 µM
  TGI: 2.34 µM
[40]
  GI50: 0.999 µM
  TGI: 2.52 µM
[41]
  GI50: 1.19 µM
  TGI: 2.54 µM
[42]
  GI50: 1.5 µM
  TGI: 3.01 µM
[43]
  GI50: 2.67 µM
  TGI: > 100 µM
[44]
  GI50: 2.89 µM
  TGI: > 26.9 µM
[45]
  GI50: 1.53 µM
  TGI: > 100 µM
[46]
  GI50: 1.29 µM
  TGI: 2.74 µM
[47]
  GI50: 1.36 µM
  TGI: 2.69 µM
[48]
  GI50: 0.883 µM
  TGI: 2.5 µM
[49]
  GI50: 0.399 µM
  TGI: 1.49 µM
[50]
  GI50: 0.654 µM
  TGI: 1.96 µM
[51]
  GI50: 0.904 µM
  TGI: 2.31 µM
[52]
  GI50: 1.58 µM
  TGI: 3.04 µM
[53]
  GI50: 1.88 µM
  TGI: 5.6 µM
[54]
  GI50: 1.41 µM
  TGI: 3.2 µM
[58]
  GI50: 0.385 µM
  TGI: 1.98 µM
[55]
  GI50: 2.06 µM
  TGI: 5.27 µM
